Reference: patent US10051861B2, “N-arylamidine-substituted trifluoroethyl sulfide derivatives as acaricides and insecticides” (BAYER CROPSCIENCE AG, priority 2011, dated 2018)
Read-outs that look alike come from different tables or passages of the source. Marks after values point to notes of the source that are not given here.

Tests used:
[1] = system: Meloidogyne incognita; assay: Meloidogyne incognita test (MELGIN); type: in vivo; settings: application rate 20 ppm, after 14 days
Experimental: Solvents: 80.0 parts by weight of acetone
Containers are filled with sand, solution of active compound, Meloidogyne incognita egg/larvae suspension and lettuce seeds. The lettuce seeds germinate and the plants develop. On the roots, galls are formed.
After 14 days, the nematicidal efficacy in % is determined by the formation of galls. 100% means that no galls have been found; 0% means that the number of galls on the treated plants corresponds to the untreated control.

[2] = logP by HPLC on reversed-phase columns (C 18), EEC Directive 79/831 Annex V.A8; type: physicochemical; settings: for logP(HCOOH): pH 2.7; for logP(neutral): pH 7.8; for chromatographic logP: reversed-phase C18 HPLC column
Experimental: Calibration is carried out using unbranched alkan-2-ones (having from 3 to 16 carbon atoms) with known log P values (the log P values are determined by the retention times using linear interpolation between two successive alkanones).

[3] = system: greenhouse red spider mite (Tetranychus urticae); assay: Tetranychus test, OP-resistant (TETRUR spray treatment); type: in vivo; settings: application rate 500 g/ha, after 6 days
Experimental: (§1) After 6 days, the effect in % is determined.

[4] = system: greenhouse red spider mite (Tetranychus urticae); assay: Tetranychus urticae spray test, OP-resistant (TETRUR), bean leaf disks; type: in vivo; settings: for pest or weed control at 500 g/ha: Tetranychus urticae, foliar, 144 h, read-out: efficacy (spider mites killed)
Experimental: as §1

[5] = system: greenhouse red spider mite (Tetranychus urticae); assay: Tetranychus urticae spray test, OP-resistant (TETRUR), bean plants; type: in vivo; settings: after 7 days
Experimental: Solvents: 7 parts by weight of dimethylformamide
Emulsifier: 2 part by weight of alkylaryl polyglycol ether
If the addition of ammonium salts or/and penetrants is required, these are in each case added in a concentration of 1000 ppm to the solution of the preparation.
Bean plants (Phaseolus vulgaris) which are heavily infested by all stages of the greenhouse red spider mite (Tetranychus urticae) are treated by spraying with the active compound preparation of the desired concentration.

[6] = system: cattle ticks (Boophilus microplus); assay: Boophilus microplus injection test (BOOPMI Inj); type: in vivo; settings: for pest or weed control at 0.02 mg: Rhipicephalus microplus, 168 h, read-out: efficacy (laying of fertile eggs)
[7] = system: larvae of the mustard beetle (Phaedon cochleariae); assay: Phaedon cochleariae spray test (PHAECO); settings: for effect (beetle larvae killed): application rate 500 g/ha, after 7 days; for pest or weed control at 500 g/ha: Phaedon cochleariae, 168 h, read-out: effect (beetle larvae killed)
[8] = system: larvae of the mustard beetle (Phaedon cochleariae); assay: Phaedon test (PHAECO spray treatment); settings: application rate 500 g/ha, after 7 days
[9] = system: L1 larvae of the Australian sheep blowfly (Lucilia cuprina); assay: Lucilia cuprina test (LUCICU); type: in vivo; settings: application rate 100 ppm, after 2 days
Experimental: (§2) Solvent: dimethyl sulfoxide
About 20 L1 larvae of the Australian sheep blowfly (Lucilia cuprina) are transferred into a test vessel containing minced horsemeat and the active compound preparation of the desired concentration.
After 2 days, the kill in % is determined.

[10] = system: Lucilia cuprina larvae; assay: Lucilia cuprina (48 h); type: in vivo; settings: application rate 100 ppm, after 48 hours
Experimental: as §2
10 mg of active compound are dissolved in 0.5 ml of dimethyl sulfoxide. To prepare a suitable formulation, the active compound solution is diluted with water to the concentration desired in each case. About 20 Lucilia cuprina larvae are introduced into a test tube which contains about 1 cm^3 of horse meat and 0.5 ml of the preparation of active compound to be tested. After 48 hours, the efficacy of the active compound preparation is determined as % larvae mortality.

[11] = system: Boophilus microplus; assay: Boophilus microplus test (BOOPMI injection); type: in vivo; design: dose or concentration left out as unconfirmed; settings: after 7 days
Experimental: as §2
The solution of active compound is injected into the abdomen (Boophilus microplus), and the animals are transferred into dishes and kept in a climatized room. The activity is assessed by laying of fertile eggs.
100% means that none of the ticks has laid any fertile eggs.

[12] = system: green peach aphid (Myzus persicae); assay: Myzus persicae spray test (MYZUPE); type: in vivo; settings: application rate 500 g/ha, after 6 days
Experimental: as §1

[13] = system: cattle ticks (Boophilus microplus) Parkhurst strain, SP-resistant; assay: Boophilus microplus dip test (BOOPMI Dip); type: in vivo; settings: application rate 100 ppm, after 7 days
Experimental: Test animals: cattle ticks (Boophilus microplus) Parkhurst strain, SP-resistant
as §2
10 mg of active compound are dissolved in 0.5 ml of dimethyl sulfoxide. To prepare a suitable formulation, the active compound solution is diluted with water to the concentration desired in each case.
This active compound preparation is pipetted into tubes. 8-10 adult engorged female cattle ticks (Boophilus microplus) are transferred into a further tube with holes. The tube is immersed into the active compound formulation, and all ticks are completely wetted. After the liquid has run out, the ticks are transferred on filter disks into plastic dishes and stored in a climate-controlled room.
The activity is assessed after 7 days by laying of fertile eggs. Eggs whose fertility is not visible from the outside are stored in a climate-controlled cabinet until the larvae hatch after about 42 days. An efficacy of 100% means that none of the ticks has laid any fertile eggs; 0% means that all eggs are fertile.

[14] = system: nematode larvae (Cooperia curticei); assay: Cooperia curticei test (COOPCU); type: in vivo; settings: application rate 100 ppm, after 5 days
Experimental: as §2
Vessels containing the active compound preparation of the desired concentration are populated with about 40 nematode larvae (Cooperia curticei).
After 5 days, the kill in % is determined.

[15] = application rate 500 g/ha, after 6 days
[16] = application rate 20 μg/animal, injection, after 7 days

## Cc1cc(C)c(SCC(F)(F)F)cc1N=C(N)C(F)(F)F [Ia-07]
[1]
  nematicidal efficacy (formation of galls): 90%
[2]
  logP(HCOOH): 3.36
  logP(neutral): 3.4
[3]
  efficacy (spider mites killed): 100%
[4]; [15]
  efficacy (spider mites killed): 100%

## Cc1cc(F)c(/N=C2\SCC(=O)N2CC(F)(F)F)cc1[S@+]([O-])CC(F)(F)F [Ib-168]
[5]; application rate 20 ppm
  efficacy (spider mites killed): 100%

## CCNC(=Nc1cc([S+]([O-])CC(F)(F)F)c(C)cc1F)C(F)(F)F (centres unmarked) [Ib-02]
[1]
  nematicidal efficacy (formation of galls): 100%
[6]; [16]
  efficacy (laying of fertile eggs): 100%
[7]
  effect (beetle larvae killed): 100%
[3]
  efficacy (spider mites killed): 100%
[8]
  efficacy (beetle larvae killed): 100%
[4]; [15]
  efficacy (spider mites killed): 100%
[9]
  efficacy (kill of larvae): 80%

## Cc1cc(F)c(/N=C(/N)C(F)(F)F)cc1[S+]([O-])CC(F)(F)F (centres unmarked) [Ib-11]
[2]
  logP(HCOOH): 2.77
  logP(neutral): 2.71
[6]; [16]
  efficacy (laying of fertile eggs): 100%
[7]
  effect (beetle larvae killed): 100%
[8]
  efficacy (beetle larvae killed): 100%
[4]; [15]
  efficacy (spider mites killed): 100%
[9]
  efficacy (kill of larvae): 100%
[10]
  effect (% larvae mortality): 100%
[11]
  efficacy (laying of fertile eggs): 100%

## Cc1cc(C)c([S+]([O-])CC(F)(F)F)cc1/N=C1\SCC(=O)N1C (centres unmarked) [Ib-159]
[5]; application rate 20 ppm
  efficacy (spider mites killed): 80%

## N/C(=N/c1cc([S@@+]([O-])CC(F)(F)F)c(Cl)cc1Cl)C(F)(F)F [Ib-44]
[5]; application rate 100 ppm
  efficacy (spider mites killed): 90%
[6]; [16]
  pest or weed control at 0.02 mg: 90%
[7]
  pest or weed control at 500 g/ha: 100%
[12]
  effect (aphids killed): 100%

## Cc1cc(F)c(N=C(N)C(F)(F)F)cc1SCC(F)(F)F [Ia-21]
[2]
  logP(neutral): 3.12^[b]
[6]; [16]
  efficacy (laying of fertile eggs): 100%
[4]; [15]
  efficacy (spider mites killed): 100%
[9]
  efficacy (kill of larvae): 100%
[10]
  effect (% larvae mortality): 100%
[11]
  efficacy (laying of fertile eggs): 100%

## Cc1cc(F)c(/N=C2\CCCN2CC(F)F)cc1[S+]([O-])CC(F)(F)F (centres unmarked) [Ib-33]
[13]
  efficacy (laying of fertile eggs): 100%
[6]; [16]
  pest or weed control at 0.02 mg: 100%
[4]; [15]
  pest or weed control at 500 g/ha: 100%

## Cc1cc(F)c(/N=C2\CCCN2CC(F)(F)F)cc1[S+]([O-])CC(F)(F)F (centres unmarked) [Ib-115, 2-Fluoro-4-methyl-N-[1-(2,2,2-trifluoroethyl)pyrrolidin-2-ylidene]-5-[(2,2,2-trifluoroethyl)sulfinyl]aniline]
[13]
  efficacy (laying of fertile eggs): 100%
[6]
  pest or weed control at 0.02 mg: 100%
[7]
  pest or weed control at 500 g/ha: 100%
[4]
  pest or weed control at 500 g/ha: 100%

## CCN/C(=N\c1cc(SCC(F)(F)F)c(Cl)cc1Cl)c1cccnc1 [Ia-220]
[4]; [15]
  pest or weed control at 500 g/ha: 90%
[14]
  efficacy (kill of larvae): 100%

## Cc1cc(F)c(/N=C2\CCCN2CC(F)(F)F)cc1SCC(F)(F)F [Ia-189, 2-fluoro-4-methyl-N-[1-(2,2,2-trifluoroethyl)pyrrolidin-2-ylidene]-5-[(2,2,2-trifluoroethyl)sulfanyl]aniline]
[13]
  efficacy (laying of fertile eggs): 100%
[2]; pH 2.7, [a] LC-MS, acidic range, pH 2.7, 0.1% aqueous formic acid/acetonitrile, read-out: logP(HCOOH)
  chromatographic logP: 2.32
[2]; pH 7.8, [b] LC-MS, neutral range, pH 7.8, 0.001 molar aqueous ammonium bicarbonate/acetonitrile, read-out: logP(neutral)
  chromatographic logP: 4.37
[6]
  pest or weed control at 0.02 mg: 100%
[4]
  pest or weed control at 500 g/ha: 100%
